target: Estrogen receptor beta (Homo sapiens, UniProt Q92731); assay: Inhibition of human estrogen receptor 2 using tritiated estradiol incubated for 3 hr
Sequence (Q92731 whole entry): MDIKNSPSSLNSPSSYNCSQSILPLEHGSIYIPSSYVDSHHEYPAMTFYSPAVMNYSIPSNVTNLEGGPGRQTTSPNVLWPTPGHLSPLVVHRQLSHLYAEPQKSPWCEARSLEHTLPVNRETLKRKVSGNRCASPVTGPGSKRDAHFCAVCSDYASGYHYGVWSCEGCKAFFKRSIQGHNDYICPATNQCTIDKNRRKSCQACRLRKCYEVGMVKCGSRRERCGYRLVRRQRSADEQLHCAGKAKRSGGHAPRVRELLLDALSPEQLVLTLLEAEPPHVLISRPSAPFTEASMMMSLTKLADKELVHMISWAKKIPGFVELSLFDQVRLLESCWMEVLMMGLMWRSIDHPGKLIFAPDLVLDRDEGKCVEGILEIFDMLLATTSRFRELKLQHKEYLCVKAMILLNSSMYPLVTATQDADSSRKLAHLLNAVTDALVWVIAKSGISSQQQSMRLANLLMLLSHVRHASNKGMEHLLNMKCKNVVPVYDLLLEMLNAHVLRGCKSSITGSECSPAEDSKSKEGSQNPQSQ

Row | SMILES | IC50 [nM]
1 | C[C@@H]1CCN([C@@H](C)COc2ccc([C@@H]3Oc4ccc(O)cc4S[C@@H]3c3cccc(O)c3)cc2)C1 | 69
2 | C[C@@H]1CCN([C@@H](C)COc2ccc([C@@H]3Oc4ccc(O)c(F)c4S[C@@H]3c3cccc(O)c3)cc2)C1 | 9.1
3 | C[C@@H]1CCN([C@@H](C)COc2ccc([C@@H]3Oc4ccc(O)c(F)c4S[C@@H]3c3ccc(O)cc3)cc2)C1 | 5.3

— ChEMBL document CHEMBL1142800, “Estrogen receptor ligands. Part 13: Dihydrobenzoxathiin SERAMs with an optimized antagonist side chain” (Bioorg Med Chem Lett, 2005)
